Data published in US20240174744A1, “METHODS OF TREATMENT USING PROTEIN BINDERS TO IRHOM2 EPITOPES” (SCIRHOM GMBH, priority 2021, published 2024).

Tested on: PMA-induced release of TNFα from U-937 cells
Test: ELISA-based TNFα release assay, PMA-stimulated U-937 cells
Assay type: cell-based
Conditions: Homo sapiens, U-937, 1 h, Batimastat 10 μM, PMA 25 ng/ml
Method: In contrast to Example 14 and 17, where the inhibitory effects of the antibodies of the present disclosure on LPS-induced release of endogenous TNFα from human THP-1 cells were tested, this analysis was conducted with recombinantly produced murine antibodies of the present disclosure to verify their inhibitory effects on PMA-induced release of endogenous TNFα from human monocytic U-937 cells.
In brief, on day 1, Nunc black MaxiSorp® 96-well plates (Thermo Fisher Scientific, USA) were coated overnight with 100 μl per well of mouse anti-human TNFα capture antibody (provided as part of the DuoSet ELISA kit) at 4 μg/ml TBS at 4° C. On day 2, the capture antibody solution was removed and MaxiSorp® plates were blocked with 300 μl per well of TBS, 1% BSA at room temperature for 1-2 hours. […] Using an infinite M1000 (Tecan Group, Switzerland) microplate reader, the fluorescence of each well was collected at an excitation wavelength of 435 nm and an emission wavelength of 555 nm. […]

CNC(=O)[C@H](Cc1ccccc1)NC(=O)[C@H](CC(C)C)[C@H](CSc1cccs1)C(=O)NO [Batimastat]
inhibition at 10 µM (murine (m) and chimeric (ch) antibodies 3 μg/ml): 98.7% | inhibition at 10 µM (recombinant murine antibodies 1 μg/ml): 100%
